Values of other authors, collected in patent US20100248978A1, “METHOD FOR IDENTIFYING THE INTERACTION PARTNER OF AN ACTIVE AGENT” (Bayer Cropscience AG, priority 2007, published 2010).

Molecular target: T1, p-hydroxyphenylpyruvate dioxygenase (HPPD) (Arabidopsis thaliana, UniProt P93836)
T1 sequence (P93836 1-445): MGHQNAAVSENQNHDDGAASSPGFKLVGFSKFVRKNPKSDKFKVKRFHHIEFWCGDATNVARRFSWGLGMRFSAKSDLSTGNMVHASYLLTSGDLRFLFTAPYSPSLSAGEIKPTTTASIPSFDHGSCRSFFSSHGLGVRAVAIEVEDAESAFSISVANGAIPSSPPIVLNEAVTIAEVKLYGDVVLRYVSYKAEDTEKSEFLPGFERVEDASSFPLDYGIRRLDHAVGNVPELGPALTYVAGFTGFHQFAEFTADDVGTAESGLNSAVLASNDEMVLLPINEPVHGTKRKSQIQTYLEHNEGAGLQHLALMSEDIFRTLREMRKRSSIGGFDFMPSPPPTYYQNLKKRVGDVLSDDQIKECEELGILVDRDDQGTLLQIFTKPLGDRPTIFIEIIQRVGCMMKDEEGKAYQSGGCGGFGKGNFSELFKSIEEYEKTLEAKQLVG

CS(=O)(=O)c1ccc(C(=O)C2C(=O)CCCC2=O)c(Cl)c1 [sulcotrione]
inhibition of HPPD: inhibits
